Data: ChEMBL document CHEMBL3045724, “Synthesis, biopharmaceutical characterization, and antimicrobial study of novel azo dyes of 7-hydroxy-4-methylcoumarin” (2013)

Tests used:
Assay type in all cases: functional
Bacillus subtilis = test: Antimicrobial activity against Bacillus subtilis assessed as diameter of growth inhibition zone after 48 hr by agar cup plate method
Escherichia coli = test: Antimicrobial activity against Escherichia coli assessed as diameter of growth inhibition zone after 48 hr by agar cup plate method
Staphylococcus aureus = test: Antimicrobial activity against Staphylococcus aureus assessed as diameter of growth inhibition zone after 48 hr by agar cup plate method
Aspergillus niger = test: Antimicrobial activity against Aspergillus niger assessed as diameter of growth inhibition zone
Salmonella typhi = test: Antimicrobial activity against Salmonella enterica subsp. enterica serovar Typhi assessed as diameter of growth inhibition zone after 48 hr by agar cup plate method

Cc1c/c(=N/CC/N=c2/cc(C)c3ccc(O)c(/N=N/c4ccccn4)c3o2)oc2c(/N=N/c3ccccn3)c(O)ccc12
inhibition zone (IZ) (Bacillus subtilis): >15 mm | inhibition zone (IZ) (Escherichia coli): >15 mm | inhibition zone (IZ) (Staphylococcus aureus): >15 mm | inhibition zone (IZ) (Aspergillus niger): >15 mm | inhibition zone (IZ) (Salmonella typhi): >15 mm

Cc1c/c(=N/CC/N=c2/cc(C)c3ccc(O)c(/N=N/c4cccnc4)c3o2)oc2c(/N=N/c3cccnc3)c(O)ccc12
inhibition zone (IZ) (Bacillus subtilis): >15 mm | inhibition zone (IZ) (Escherichia coli): 10 mm | inhibition zone (IZ) (Staphylococcus aureus): >15 mm | inhibition zone (IZ) (Aspergillus niger): <5 mm | inhibition zone (IZ) (Salmonella typhi): >15 mm

Cc1c/c(=N/CC/N=c2/cc(C)c3ccc(O)c(/N=N/c4ccncc4)c3o2)oc2c(/N=N/c3ccncc3)c(O)ccc12
inhibition zone (IZ) (Bacillus subtilis): 10 mm | inhibition zone (IZ) (Escherichia coli): >15 mm | inhibition zone (IZ) (Staphylococcus aureus): >15 mm | inhibition zone (IZ) (Aspergillus niger): >15 mm | inhibition zone (IZ) (Salmonella typhi): 10 mm

Cc1c/c(=N/CC/N=c2/cc(C)c3ccc(O)c(/N=N/c4c(C)n(C)n(-c5ccccc5)c4=O)c3o2)oc2c(/N=N/c3c(C)n(C)n(-c4ccccc4)c3=O)c(O)ccc12
inhibition zone (IZ) (Bacillus subtilis): >15 mm | inhibition zone (IZ) (Escherichia coli): 10 mm | inhibition zone (IZ) (Staphylococcus aureus): 10 mm | inhibition zone (IZ) (Aspergillus niger): >15 mm

Cc1c/c(=N/CC/N=c2/cc(C)c3ccc(O)c(/N=N/c4cccc5ccccc45)c3o2)oc2c(/N=N/c3cccc4ccccc34)c(O)ccc12
inhibition zone (IZ) (Bacillus subtilis): >15 mm | inhibition zone (IZ) (Escherichia coli): >15 mm | inhibition zone (IZ) (Staphylococcus aureus): >15 mm | inhibition zone (IZ) (Aspergillus niger): >15 mm | inhibition zone (IZ) (Salmonella typhi): >15 mm

Cc1c/c(=N/CC/N=c2/cc(C)c3ccc(O)c(/N=N/C4=NCCS4)c3o2)oc2c(/N=N/C3=NCCS3)c(O)ccc12
inhibition zone (IZ) (Bacillus subtilis): 10 mm | inhibition zone (IZ) (Escherichia coli): >15 mm | inhibition zone (IZ) (Staphylococcus aureus): >15 mm | inhibition zone (IZ) (Aspergillus niger): >15 mm | inhibition zone (IZ) (Salmonella typhi): >15 mm

CC1(C)S[C@@H]2[C@H](NC(=O)[C@H](N)c3ccccc3)C(=O)N2[C@H]1C(=O)O [AMPICILLIN]
inhibition zone (IZ) (Bacillus subtilis): >15 mm | inhibition zone (IZ) (Escherichia coli): >15 mm | inhibition zone (IZ) (Staphylococcus aureus): 10 mm | inhibition zone (IZ) (Aspergillus niger): 10 mm | inhibition zone (IZ) (Salmonella typhi): >15 mm

CN[C@@H]1[C@H](O[C@H]2[C@H](O[C@H]3[C@H](O)[C@@H](O)[C@H](N=C(N)N)[C@@H](O)[C@@H]3N=C(N)N)O[C@@H](C)[C@]2(O)C=O)O[C@@H](CO)[C@H](O)[C@H]1O [STREPTOMYCIN]
inhibition zone (IZ) (Bacillus subtilis): >15 mm | inhibition zone (IZ) (Escherichia coli): 10 mm | inhibition zone (IZ) (Staphylococcus aureus): >15 mm | inhibition zone (IZ) (Aspergillus niger): >15 mm | inhibition zone (IZ) (Salmonella typhi): >15 mm
